Structures are written as SMILES. pIC50: −log10 of the molar value. “And” between values parts separate entries of the source, which are not always exact repeats. Identical values can stand only once. Bounds are passed on as bounds.

This experiment relates to 926638-142-R-J1-PDC complex spheroid viability. In words: Anticancer human tumor 926638-142-R-J1-PDC patient-derived endometrial carcinoma cell line growth inhibition [POLQ]. Particulars: for viability, T/C: stronger effect = lower value. How it is done: Multicellular complex tumor spheroid response to Polymerase (POL) inhibitors (novobiocin, ART-558, RP6685) in combination with a variety of drugs and investigational agents in selected tumor cell lines
The POL inhibitors (novobiocin, ART-558, and RP6685) were evaluated both individually and in combination with standard of care and investigational anticancer small molecules within a complex spheroid model of solid tumors. . Complex spheroids include a stromal component modeled by human endothelial cells (HUVEC) and fibroblasts modeled by human mesenchymal stem cells (MSCs). The concentration ranges selected for each drug and investigational agent were based upon clinically achievable concentrations if the clinical Cmax of the agent was known.
Compounds. The drugs and investigational agents: novobiocin (NSC847541), ART-558 (NSC835418), RP-6685 (NSC848927), peposertib (NSC802822), ceralasertib (NSC780249), elimusertib (NSC800525), camonsertib (NSC841442), AZD-1390 (NSC803789), olaparib (NSC753686), talazoparib (NSC767125), rucaparib (NSC756644), sotorasib (NSC818433), MRTX-1133 (NSC836407), SN-38 (NSC673596), topotecan (NSC609699), epotoside (NSC141540), doxorubicin (NSC123127), gemcitabine (NSC613327), 5-fluorouracil (NSC19893), paclitaxel (NSC125973), vemurafenib (NSC761431), MSA-2 (NSC828583), SN-011 (NSC837082), adavosertib (NSC754352), prexasertib (NSC758257), carboplatin (NSC241240) and oxaliplatin (NSC266046), were obtained from the National Cancer Institute (NCI) Developmental Therapeutics Program Chemical Repository (21). The FDA-approved anticancer drug set is available from the Developmental Therapeutics Program at https://dtp.cancer.gov/organization/dscb/obtaining/. […] The stock solutions were prepared in dimethyl sulfoxide (DMSO, Sigma-Aldrich, St. Louis, MO, cat. D2650), except for the platinum compounds which were prepared in saline (Quality Biological, Gaithersburg, MD, cat. 114-055-101), at 800-fold the tested concentration and stored at -70 degrees C prior to their use. All drugs and investigational agents were tested over a range starting from a high concentration at or near the clinical Cmax and decreasing in half-log increments. If the clinical Cmax for an agent had not been determined, the highest concentration tested was 10 microM, except for SN-38, which was tested at a high concentration of 1 microM.
Cell Culture. All cells were maintained in an incubator at 37 degrees C and 5% CO2 with 95% humidity. The PDC lines were cultured according to standard operating procedures established by the NCI PDMR (https://pdmr.cancer.gov). Table 3 of the manuscript, lists the cell lines along with the number of the three cell types plated to form the mct-spheroids and media for tumor cell growth. After thawing, all PDC lines, except 997537-175-T-J1-PDC and 415267-285-R-J2-PDC, were cultured in Matrigel-coated flasks prepared with a working solution of 1X Ham's F-12 nutrient mix, without supplementation (Thermo Fisher Scientific, cat. 11765054), 100 U/mL penicillin-streptomycin (Thermo Fisher Scientific, cat. 15140122), and 2.5% Matrigel (Corning Inc., Corning, NY, cat. 354248) for the first three passages. The two PDC lines 997537-175-T-J1-PDC and 415267-285-R-J2-PDC were cultured on uncoated flasks. The 857933-349-R-J2-PDC line was cultured in 6C/Colon 1B media containing advanced DMEM/F-12 (Thermo Fisher Scientific, cat. 12634028), 10 mM HEPES (Thermo Fisher Scientific, cat. 15630080), 1X GlutaMAX supplement (Thermo Fisher Scientific, cat. 35050061), 0.1 mg/mL primocin (InvivoGen, San Diego, CA, cat. ant-pm-2), 10% defined fetal bovine serum, heat inactivated (HyClone Laboratories Inc., Logan, UT, cat. SH30070.03HI), 50% L-WRN conditioned media (ATCC, cat. CRL-3276), 1.25 mM N-Acetyl-L-cysteine (Sigma-Aldrich, cat. A9165), 10 mM nicotinamide (Sigma-Aldrich, cat. N0636), 1X B-27 supplement (Thermo Fisher Scientific, cat. 17504044), 1X N-2 supplement (Thermo Fisher Scientific, cat. […]
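Note: spheroids exposed to drugs for one week before readout.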
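Throughout, for viability, T/C: percent viability relative to DMSO vehicle control wells set as 100%.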

Broadly, the viability, T/C is the result in the treated group divided by that in the control group, in per cent. In general, pIC50 refers to the negative decadic logarithm of the IC50, by convention in mol/L. Turning to `C=CCn1c(=O)c2cnc(Nc3ccc(N4CCN(C)CC4)cc3)nc2n1-c1cccc(C(C)(C)O)n1`, the viability, T/C is, setting by setting: (compound 0.00316 µM) 85% and 93.8% and 95.4%; (compound 0.01 µM) 80.4% and 77.2% and 83.5%; (compound 0.0316 µM) 99.2% and 71.9% and 92.3%; (compound 0.1 µM) 95.8% and 78.3% and 77%; (compound 0.316 µM) 47.6% and 50.2% and 49%; (compound 1 µM) 36.5% and 43.9% and 48.2%. Besides, the pIC50 (curve of compound) was 6.53 and 6.27 and 6.52.
Regarding `CC(=O)O[C@H]1C(=O)[C@@]2(C)[C@H]([C@H](OC(=O)c3ccccc3)[C@]3(O)C[C@H](OC(=O)[C@H](O)[C@@H](NC(=O)c4ccccc4)c4ccccc4)C(C)=C1C3(C)C)[C@]1(OC(C)=O)CO[C@@H]1C[C@@H]2O`, the viability, T/C is 82.5% and 94% and 68.4% (compound 0.00949 µM); 63.2% and 60.2% and 77.5% (compound 0.03 µM); 57.1% and 53.2% and 62.2% (compound 0.0949 µM); 55% and 53.9% and 68.9% (compound 0.3 µM); 61.5% and 52.6% and 56% (compound 0.949 µM); 44.7% and 45.7% and 57.5% (compound 3 µM). Moreover, the pIC50 (curve of compound) was less than 5.52.
`CC[C@@]1(O)C(=O)OCc2c1cc1n(c2=O)Cc2cc3c(CN(C)C)c(O)ccc3nc2-1`: the viability, T/C is 92.4% and 102% and 103% (compound 0.000316 µM); 87.4% and 90.6% and 84.2% (compound 0.001 µM); 86.8% and 84.1% and 78.3% (compound 0.00316 µM); 72.1% and 81.6% and 70.2% (compound 0.01 µM); 68.5% and 73.5% and 62% (compound 0.0316 µM); 43.1% and 49% and 41.8% (compound 0.1 µM). Further, where the note is “curve of compound”, the pIC50 is 7.14 and < 7.00 and 7.20.
For the compound `CCc1c2c(nc3ccc(O)cc13)-c1cc3c(c(=O)n1C2)COC(=O)[C@]3(O)CC`, the viability, T/C (compound 0.00316 µM) is 65.4% and 62.4% and 71.3%; the viability, T/C (compound 0.01 µM) was 46.9% and 39.7% and 51.1%; the viability, T/C (compound 0.0316 µM) is 39% and 39.6% and 38.6%; the viability, T/C (compound 0.1 µM) is 24.9% and 26.6% and 21%; the viability, T/C (compound 0.316 µM) is 10.9% and 16.3% and 8.99%; the viability, T/C (compound 1 µM) is 4.17% and 12.3% and 5.58%. Besides, where the note is “curve of compound”, the pIC50 was 8.00 and 8.14 and 7.90.
For the compound `COc1cc(C2c3cc4c(cc3C(OC3OC5COC(C)OC5C(O)C3O)C3COC(=O)C23)OCO4)cc(OC)c1O` (configuration not stated), the viability, T/C is 97.6% and 99% and 86.2% (compound 0.0316 µM); 79.6% (2×) and 77.2% (compound 0.1 µM); 63.6% and 68.3% and 88.5% (compound 0.316 µM); 67.9% and 82.5% and 80.7% (compound 1 µM); 66.8% and 64.7% and 65.7% (compound 3.16 µM); 65.4% and 55.2% and 55.3% (compound 10 µM). In addition, the pIC50 (curve of compound) is less than 5.00.
`COc1cccc(OCCCN)c1-c1cc(Nc2cnc(C#N)cn2)n[nH]1`: the viability, T/C reads like this: (compound 0.00316 µM) 93.2% and 79.9% and 100%; (compound 0.01 µM) 77.4% and 82.9% and 82.8%; (compound 0.0316 µM) 60.4% and 55.2% and 58.4%; (compound 0.1 µM) 55.1% and 55.9% and 59.1%; (compound 0.316 µM) 52% and 40.5% and 39.7%; (compound 1 µM) 26.3% and 36.1% and 36.3%. For the same compound, the pIC50 (curve of compound) was 6.82 and 6.97 and 6.89.
`COc1cccc2c1C(=O)c1c(O)c3c(c(O)c1C2=O)CC(O)(C(=O)CO)CC3OC1CC(N)C(O)C(C)O1` (configuration not stated): the viability, T/C (compound 0.0316 µM) is 77.2% and 83% and 80.9%; the viability, T/C (compound 0.1 µM) is 57.6% and 62.2% and 59.7%; the viability, T/C (compound 0.316 µM) is 17.8% and 23.1% and 18.7%; the viability, T/C (compound 1 µM) was 3.79% and 5.62% and 2.27%; the viability, T/C (compound 3.16 µM) was 0.22% and 0.29% and 0.23%; the viability, T/C (compound 10 µM) is 0.25% and 0.29% and 0.23%. Besides, the pIC50 (curve of compound) was 6.91 and 6.84 and 6.88.
`Cn1ncnc1[C@H]1c2n[nH]c(=O)c3cc(F)cc(c23)N[C@@H]1c1ccc(F)cc1`: the viability, T/C runs as follows: (compound 0.000316 µM) 89.5% and 93.8% and 99.4%; (compound 0.001 µM) 85.5% and 91.6% and 86%; (compound 0.00316 µM) 76.9% and 94.5% and 82.1%; (compound 0.01 µM) 89.5% and 92.3% and 85.3%; (compound 0.0316 µM) 86.7% and 70% and 82.3%; (compound 0.1 µM) 67% and 72.8% and 67.5%. Also, the pIC50 (curve of compound) is less than 7.00.
Consider `Nc1ccc(C#CCN(C(=O)Cc2ncc(C(F)(F)F)cc2C(F)(F)F)c2ccc(F)cc2)nn1`, for which the viability, T/C by setting is: (compound 0.0316 µM) 101% [middle of 13 runs]; (compound 0.1 µM) 101% [middle of 13 runs]; (compound 1 µM) 97.2% [middle of 13 runs]; (compound 10 µM) 99.8% [middle of 13 runs]. The pIC50 (compound alone, run of 01/19/2024) is less than 5.00.
`Nc1ccn(C2OC(CO)C(O)C2(F)F)c(=O)n1` (configuration not stated): the viability, T/C reads like this: (compound 0.0316 µM) 69.5% and 96.5% and 88.2%; (compound 0.1 µM) 66% and 60.7% and 62%; (compound 0.316 µM) 54.2% and 57.4% and 60.7%; (compound 1 µM) 52.6% and 52.3% and 53.2%; (compound 3.16 µM) 43.8% and 41.2% and 44%; (compound 10 µM) 30.5% and 27.8% and 24.4%. For the same compound, the pIC50 (curve of compound) was 5.96 and 6.24 and 6.01.
On to `O=C(c1cc(Cc2n[nH]c(=O)c3ccccc23)ccc1F)N1CCN(C(=O)C2CC2)CC1`, for which the viability, T/C is, setting by setting: (compound 0.0316 µM) 88.8% and 70.9% and 97%; (compound 0.1 µM) 85.3% and 91.2% and 85.1%; (compound 0.316 µM) 86.5% and 105% and 91.6%; (compound 1 µM) 88.9% and 104% and 100%; (compound 3.16 µM) 85% and 76.3% and 79.9%; (compound 10 µM) 70.9% and 87.5% and 73%. Further, the pIC50 (curve of compound) was less than 5.00.
In the case of `O=c1[nH]cc(F)c(=O)[nH]1`, the viability, T/C is, setting by setting: (compound 0.0316 µM) 109% and 99.3% and 86.3%; (compound 0.1 µM) 101% and 89.2% and 108%; (compound 0.316 µM) 92% (2×) and 87.6%; (compound 1 µM) 89% and 95.6% and 93%; (compound 3.16 µM) 84.3% and 86% and 78.8%; (compound 10 µM) 75% and 88% and 80%. Further, under “curve of compound”, the pIC50 was less than 5.00.

Source of the values: PubChem BioAssay AID1963826 (Molecular Pharmacology Branch, DTP, NCI, 2024).
